Measurements reported in paper PMC9241695, “Selective Metal Chelation by a Thiosemicarbazone Derivative Interferes with Mitochondrial Respiration and Ribosome Biogenesis in Candida albicans” (Microbiology Spectrum, 2022).

What was measured:
C. albicans SC5314 cells = assay: Intracellular ATP production; type: cell-based, Candida albicans; details: 0.125 μg/mL, compared with control cells
Experimental: albicans SC5314 cells (1 × 10^6 cells/mL) were challenged with various doses of 19ak and incubated at 30°C for 6 h, followed by staining with 20 μM Rh123 for 30 min in the dark and detection by flow cytometry (Becton Dickinson, CA, USA).
Measurement of intracellular ATP production. To explore whether 19ak affects intracellular ATP content by damaging mitochondria, we treated C. albicans SC5314 cells (1 × 10^6 cells/mL) with different doses of 19ak. After lysing the cells in lysis buffer, ATP levels were measured with the ATP Assay Kit (Beyotime, Haimen, China) according to the manufacturer's instructions. Cellular protein concentrations were determined using a BCA Protein Assay Kit (Beyotime, Haimen, China). The intracellular ATP content was calculated by referring to a standard curve and normalized using the protein content of each sample for expression as nmol/mg […]
ROS production assay. […] The fluorescence intensity was then measured by flow cytometry, and the data were analyzed with Win MDI 2.9 software.
Influence of oxidant or antioxidant molecules on 19ak activity. […] The effects of NAC, Tu and DTT on the growth of 19ak treated fungal cells were measured using a time-growth curve. […] A microplate reader was used to measure the absorbance at600 nm, and the growth curves were plotted.

[1] = tested on: mitochondrial respiratory chain complex III; assay: Mitochondrial respiratory chain complex activity in isolated mitochondria; type: biochemical, Candida albicans; details: purified mitochondria, 0.125-1 μg/mL, 6 h
Experimental: (§1) Mitochondrial isolation and detection of mitochondrial respiratory chain complex activity. Mitochondria were isolated from C. albicans spheroplasts as previously described (8). A dilution series of 19ak was added to the mitochondrial suspensions to obtain final concentrations of 0, 0.125, 0.25, 0.5, and 1 μg/mL and incubated for 6 h at 30°C. The activities of mitochondrial respiratory chain complexes I-IV were determined by using the Micro Mitochondrial Respiratory Chain Complex Activity Assay Kit (Solarbio, Beijing, China). The concentration of protein was determined using the BCA Protein Assay Kit (Beyotime, Haimen, China).
(§2) Mitochondrial complex activity was expressed as nmol/min/mg protein. […]

[2] = tested on: mitochondrial respiratory chain complex I; assay: as above; type: biochemical, Candida albicans
Experimental: as §1, §2

16HBE = assay: Intracellular ferrous and zinc contents in mammalian cells (FeRhoNox-1, Zinbo-5); type: cell-based, human; details: 5 μg/mL, 12 h
Experimental: (§3) FeRhoNox-1 is a commercially available fluorescent probe that specifically binds Fe^2+ and is used to measure intracellular Fe^2 + content. C. albicans SC5314 cells cultured overnight were diluted to roughly 1 × 10^6 cells/mL in RPMI 1640 medium and challenged with various doses of 19ak for 6 h. Next, the cells were fixed with 4% paraformaldehyde for 1 h. After washing three times with PBS, the cells were stained with 5 μM FeRhoNox-1 for 30 min and analyzed by flow cytometry (Becton, Dickinson, CA, USA). Mammalian cells culture is according to the method described in Cytotoxicity testing which was described in Supplemental material in detail. After 12 h of treatment with different concentrations of 19ak, the supernatant was discarded and washed three times with PBS. Cells were collected after staining with FeRhoNox-1 for 30 min in the dark, and the fluorescence intensity of stained cells was analyzed by flow cytometry.
(§4) C. albicans SC5314 cells grown overnight were pelleted, washed three times with PBS buffer, and resuspended to obtain an OD600 of 2.0. Next, the cells were incubated with various concentrations of 19ak in 96-well plates at 30°C for 6 h, followed by incubation with 10 μM Zinbo-5 for 30 min. Finally, fluorescence was measured in a microplate reader (excitation at 355 nm, emission at 485 nm). […]

HepG2 = assay: as above; type: cell-based, human; details: 5 μg/mL, 12 h
Experimental: as §3, §4

C. albicans SC5314 [3] = assay: CCK-8 reduction assay, mitochondrial dehydrogenase activity; type: cell-based, Candida albicans; details: 0.125 μg/mL to 5 μg/mL
Experimental: The Cell Counting Kit-8
(CCK-8) assay is used to measure the dehydrogenase activity in the mitochondria of C. albicans or mammalian cells. C. albicans SC5314 (5 × 10^6 cells/mL in RPMI1640 medium) were treated with different concentrations of 19ak in 96-well plates at 30°C for 12 h or 48 h. 10 μL of CCK-8 solution was added to each well. After an additional 2 h of incubation, OD450 in each well was detected with a microplate reader. […]

C. albicans SC5314 [4] = assay: G. mellonella infection model; type: in vivo, Galleria mellonella; details: 19ak 0.4 μg per larva, FLC 2 μg per larva
Experimental: The G. mellonella infection model was used to evaluate the in vivo activity of 19ak in terms of survival, fungal burden, and histological features. A total of 60 larvae of similar size were selected and randomly allocated to four groups. The last right foreleg of each larva was injected with 10 μL of C. albicans SC5314 suspension (2 × 10^7 CFU/mL). Two hours after infection, the larvae were injected with 10 μL of drug or vehicle as follows for the four groups: 19ak (0.4 μg per larva), FLC (2 μg per larva), control (PBS), and blank control (no injection with C. albicans but injections of sterile PBS twice). The data for the blank control are not shown because this group survived well during the experiment. Failure to respond to light contact with forceps was considered a sign of larval death. In the survival assay, the number of surviving larvae in each group was calculated at the same time every day for 4 days.
To determine fungal burden, larval infection and treatment were performed as described above with groups of 30 larvae each. Each day, five larvae were randomly selected from each group and homogenized with glass beads in 0.5 mL of sterile PBS. The homogenate was serially diluted with sterile PBS, and 5 μL was spread on a yeast-peptone-dextrose solid plate ([62]). Experiments were performed at least three times independently.
We also conducted histopathological studies to explore the therapeutic effects of the drugs on G. mellonella fungal infection. First, the groups of larvae were infected as described above. After 48 h, three larvae from each group were randomly selected and fixed in 4% paraformaldehyde for sectioning and Periodic acid-Schiff (PAS) staining. The tissue was observed and photographed under an Olympus microscope with 40 × magnification (IX71, Olympus, Tokyo, Japan). The experiments were performed independently a minimum of three times.

C/C(=N\NC(=S)N(C)C)c1ccccn1 [Compound 19ak]
Decrease of intracellular ATP levels (C. albicans SC5314 cells): approximately 65.8% | Activity of mitochondrial respiratory chain complex III [1]: slightly inhibited | Reduction of NADH dehydrogenase activity with extra metal ions ([2]; 100 μM metal ions, 0.125 or 1 μg/mL 19ak): partially restored | Activity of mitochondrial respiratory chain complex I (CI, NADH dehydrogenase) ([2]; purified mitochondria, 0.125-1 μg/mL, 6 h): significantly inhibited | Ferrous and zinc contents in 16HBE cells (16HBE): almost had no effects | Ferrous and zinc contents in HepG2 cells (HepG2): almost had no effects | Mitochondrial dehydrogenase activity of C. albicans (CCK-8, absorbance at 450 nm) (C. albicans SC5314 [3]): decreased accordingly in a dose-dependent manner | Histopathology of infected larvae (C. albicans SC5314 [4]; 48 h, PAS staining): fewer infected areas | Fungal burden of infected larvae (C. albicans SC5314 [4]; compared with the control group): greatly reduced the fungal burden | Survival rate of infected larvae (C. albicans SC5314 [4]; after 4 days of infection, 2 h after infection): 67%
